System: adjuvant-induced arthritis in rats
Test: adjuvant-induced arthritis in rats, per cent inhibition of paw swelling
Format: in vivo, rat
Conditions: 0.5 mg/kg s.c. daily for sixteen days, male rats
Text: In using the compounds of the invention to produce antiinflammatory effects in warm-blooded animals, they may be administered subcutaneously. The particular dosage to obtain the antiinflammatory effect will vary with the particular compound employed and the degree of antiinflammatory response desired. The antiinflammatory response produced upon subcutaneous administration can be observed by the method described by Newbould, B. B. in Brit. J. Pharm. Chemoth., 21, 127 (1963) and Rosenthale, M. E., and Nagra, C. L. in Proc. Soc. Exp. Biol. and Med., 125, 149 (1967). In this procedure, adjuvant-induced arthritis is induced in rats by injection of dead mycobacteria into the hind footpad. The test compound is administered subcutaneously daily for sixteen consecutive days beginning with the day of injection. The injected foot swells rapidly during the first 4 to 6 days. Thereafter, the swelling subsides until the 8th day, and then it resumes. About 4 to 10 days after injection, the other hind paw (un-injected) becomes swollen and other inflammatory nodules may be found in the ear and tail. The swelling of the injected paw at day 4 is taken as an indication of an acute inflammatory response. The swelling of the same paw at day 16 is taken as a delayed inflammatory response. The swelling of the other hind paw at day 16 is taken as a delayed hypersensitivity reaction. Active antiinflammatory compounds reduce the swelling in either the acute and/or the delayed phases. […] The percent protection against swelling, as compared to non-treated controls, is calculated and is used as a measure of antiinflammatory activity.
Male rats are randomly dispersed into groups. […] On day 4, the volume of the injected (right) foot is measured by means of a mercury plethysmograph. On day 16, the volumes of both the injected, right foot and the left hind foot are measured. The ability of the test compound to protect against acute and delayed swelling is measured by calculating the per cent decrease in volume of the test animals as compared to controls. […]

## CCCCCC(C)(O)/C=C/[C@H]1[C@H](C#N)CC(O)[C@@H]1CCCCCCC(=O)O (stereo partly drawn) [3α-cyano-5(RS)-hydroxy-2β-[(3RS)-3-hydroxy-3-methyl-trans-1-octenyl]-1α-cyclopentaneheptanoic acid]
Injected right paw, day 4 (acute)
  % Inhibition of Swelling, Day 4, Rt. Paw: 25%
Injected right paw, day 16 (delayed)
  % Inhibition of Swelling, Day 16, Rt. Paw: 31%
un-injected left paw, day 16 (delayed hypersensitivity)
  % Inhibition of Swelling, Day 16, Left Paw: 35%

Source: patent publication US3975421A, “15-Substituted 11α-cyano-prostaglandins and related compounds” (American Home Products Corporation, priority 1974, dated 1976)
